These results are taken from US12371400B2, “Cathepsin inhibitors” (ACADEMISCH ZIEKENHUIS LEIDEN (H.O.D.N. LUMC), priority 2017, dated 2025).

Entries after “also recorded” stand apart in the source; their conditions may differ. Read-outs that look alike come from different tables or passages of the source.

Assay [1] concerns the target hCatS (Homo sapiens, UniProt P25774). Nature of the assay: In vitro inhibition of purified human Cathepsin S (Z-FVR-AMC). The conditions noted are these: 30 min incubation with inhibitor, mean ± SD, triplicate. The class given is biochemical. As to the method: (§1) Cathepsin (e.g. Cathepsin K/L/V/S/B), in particular purified human Cathepsin, was diluted in freshly prepared reaction buffer consisting of 50 mM MES pH 5.5, 25 mM EDTA and 2.5 mM DTT. 0.05% Tween20 (v/v) may be added to the reaction buffer of the Cathepsin K.
(§2) Activity assays may be conducted in a suitable manner. In the experiments described herein, the assays were typically conducted in Corning 3820 Low Volume 384 Well Assay Plate with a final assay volume of 20 μL. Plates were shaken at 600 rpm for 1 minute and centrifuged at 1000 rpm for 1 minute prior to incubation. Cathepsin activity was quantified using synthetic fluorogenic peptide substrate Z-FR-AMC (Cath K, L, V), Z-RR-AMC (Cath B) or Z-FVR-AMC (Cath S). Fluorescence intensity (λex=350 nm, λem=440 nm) was measured every 2 minutes in arbitrary units (A.U.) on a CLARIOstar (BMG Labtech) microplate reader and values were converted to product formation [AMC]. […] Measurements were performed in triplicate.
(§3) Inhibitors (200 nL, 100× final concentration in DMSO) were diluted in reaction buffer (10 μL). Purified human Cathepsin (5 μL, 4× final concentration) was added and the reaction mixture was incubated for 30 min at room temperature. Fluorogenic substrate (5 μL, 4× final concentration) was added and fluorescence intensity was measured every 2 minutes for 30-90 minutes.
(§4) The potency of the compounds as CatK inhibitors was assessed in an in vitro inhibition assay on purified human CatK (Table 2). Cathepsin was incubated with inhibitor, and the hydrolysis of substrate was initiated by addition of substrate.

Assay [2] has as its target hCatV (Homo sapiens, UniProt O60911). Nature of the assay: In vitro inhibition of purified human Cathepsin V (Z-FR-AMC). The class given is biochemical. Conditions: 30 min incubation with inhibitor, mean ± SD, triplicate. As to the method: as §1
(§5) Activity assays may be conducted in a suitable manner. […] Plates were shaken at 600 rpm for 1 minute and centrifuged at 1000 rpm for 1 minute prior to incubation. Cathepsin activity was quantified using synthetic fluorogenic peptide substrate Z-FR-AMC (Cath K, L, V), Z-RR-AMC (Cath B) or Z-FVR-AMC (Cath S). Fluorescence intensity (λex=350 nm, λem=440 nm) was measured every 2 minutes in arbitrary units (A.U.) on a CLARIOstar (BMG Labtech) microplate reader and values were converted to product formation [AMC]. […] Measurements were performed in triplicate.
as §3, §4

The target in assay [3] is T1, hCatK (Homo sapiens, UniProt P43235).
T1 sequence (P43235 115-329): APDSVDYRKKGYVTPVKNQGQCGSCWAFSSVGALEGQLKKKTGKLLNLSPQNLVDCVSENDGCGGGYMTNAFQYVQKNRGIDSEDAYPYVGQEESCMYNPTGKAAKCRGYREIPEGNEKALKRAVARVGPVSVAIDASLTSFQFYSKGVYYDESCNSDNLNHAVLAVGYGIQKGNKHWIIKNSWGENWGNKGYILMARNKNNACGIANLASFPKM
In words: In vitro inhibition of purified human Cathepsin K (fluorogenic substrate Z-FR-AMC). The class given is biochemical. The conditions noted are these: for IC50: purified human Cathepsin, 30 min incubation with inhibitor, mean ± SD, triplicate. As to the method:
as §1, §2, §3, §4

Assay [4] deals with hCatL (Homo sapiens, UniProt P07711). In words: In vitro inhibition of purified human Cathepsin L (Z-FR-AMC). Conditions: 30 min incubation with inhibitor, mean ± SD, triplicate. The class given is biochemical. As to the method:
as §1, §5, §3, §4

The target in assay [5] is hCatB (Homo sapiens, UniProt P07858). In words: In vitro inhibition of purified human Cathepsin B (Z-RR-AMC). The class given is biochemical. Conditions: 30 min incubation with inhibitor, mean ± SD, triplicate. As to the method:
as §1, §5, §3, §4

Assay [6] concerns the target T1, hCatK. In words: Kinetic evaluation of covalent inhibitors on purified hCatK. Conditions: 100 pM hCatK, 4 μM Z-FR-AMC, 26° C., reaction started by addition of CatK; for Ki: read-out: Kl. The class given is biochemical. As to the method: The reaction kinetics of irreversible covalent inhibitor compounds may be assed in the following manner. Inhibitors (200 nL, 100× final concentration in DMSO) were diluted in reaction buffer (10 μL). Fluorogenic substrate (5 μL, 4× final concentration) was added and the reaction was started by addition of Cathepsin (5 μL, 4× final concentration). Fluorescence intensity was measured every 2 minutes for 60 minutes and fitted to equation I to obtain the Kobs. The obtained values were plotted against the inhibitor concentration and fitted to equation II to obtain kinetic parameters Kinact (rate of covalent bond formation) and Ki.
Kinetic evaluation of irreversible covalent inhibitors was conducted by following the progress curve of inhibition when the hydrolysis of substrate is started by addition of the enzyme (instead of incubating the protease with the inhibitor prior to addition of the substrate). From this curve the maximum rate of covalent bond formation (Kinact) could be determined (Table 4).

In assay [7] the target is T1, hCatK. Nature of the assay: Jump dilution assay for reversibility of hCatK inhibition. The class given is biochemical. The conditions noted are these: 300× dilution into fluorogenic substrate solution. Here is the method: FIG. 3 provides a schematic overview of a jump dilution assay. A) Dose response curve for a 300-fold dilution of inhibitor concentration from full inhibition to full activity. B) Protocol and concentrations for incubation and dilution. C) Progress curves for hCatK proteolytic activity with inhibitor compounds ODN, 4, 5, 6 after dilution.
Reversibility of protease inhibition by an inhibitor may be assessed in a jump dilution assay. An exemplary jump dilution assay is provided in R. A. Copeland, A. Basavapathruni, M. Moyer, M. P. Scott, Anal. Biochem. 2011, 416, 206. In a jump dilution assay the protease (e.g. CatK) is incubated with inhibitor at high concentration to allow full active site occupation, and subsequently diluted, e.g. 300×, into fluorogenic substrate solution resulting in an inhibitor concentration corresponding with full protease activity. The hydrolysis of fluorogenic substrate is monitored over an extended time period, e.g. at least 60 minutes. […] The assay results may be compared with the results using a known irreversible inhibitor of the protease as a control. E-64 represents an established pan-Cathepsin irreversible inhibitor, suitable for use as a positive control with most cysteine protease Cathepsins.
Reversibility of hCatK inhibition was assessed in a jump dilution assay. Established pan-Cathepsin inhibitor E-64 was taken along as a control for irreversible inhibition. Purified hCatK was incubated with inhibitors at high concentration to allow full active site occupation, and subsequently diluted 300× into fluorogenic substrate solution resulting in an inhibitor concentration corresponding with full activity (FIG. 3).

For assay [8], the target named is T2, Cathepsin K (Homo sapiens, UniProt P43235).
T2 sequence (P43235 115-329): T1 sequence (P43235 115-329)
Nature of the assay: LC-MS of intact CatK and CatK-inhibitor complexes. The class given is binding. As to the method:
The masses were determined from deconvoluted electrospray ionization mass spectra of CatK complexes. FIG. 4A to FIG. 4E each provide the result for a sample. In each of these FIGS. 4A to 4E the first panel provides the UPLC chromatogram, the second panel provides the electrospray ionization mass spectrum, and the third panel provides the corresponding deconvoluted electrospray ionization mass spectrum (average isotopes) with an indication of the measured mass of the predominant species. FIG. 4A provides the results obtained for intact CatK. FIG. 4B provides the results obtained for CatK.
Cathepsin K (3 μM) in reaction buffer ([…]) was incubated with inhibitor (100 μM) at 37° C. for 6 hours prior to analysis. 1 μL injections of the sample were made onto a XEVO-G2XSQTOF#YEA928 UPLC-MS system with a Waters Acquity CM detector. Chromatographic separation was carried out on a ACQUITY UPLC® Protein BEH C4 Column over a 12 minute gradient elution of 2% to 100% acetonitrile in water (0.1% formic acid) at a flow rate of 0.500 mL/min. For the first 4 minutes the flow was diverted to the waste to avoid contamination of the MS with high concentrations of buffer components. After 4 minutes, the elution flow was ionized with an ESI ionization source and measured on a XEVO-G2XSQTOF. The results were analyzed using MassLynx V4.1. The total mass of the complex was obtained by deconvolution of electrospray ionization mass spectrum envelope (average isotopes) with the MaxEnt1 function.
Cathepsin K was incubated with ODN, 4, 5 or 6 for 6 h to allow full covalent bond formation and submitted for measurement without any digestion steps, according to the method for LC-MS for intact CatK and CatK-inhibitor complexes described in the assays section above.

Sequence of hCatS (P25774 115-331): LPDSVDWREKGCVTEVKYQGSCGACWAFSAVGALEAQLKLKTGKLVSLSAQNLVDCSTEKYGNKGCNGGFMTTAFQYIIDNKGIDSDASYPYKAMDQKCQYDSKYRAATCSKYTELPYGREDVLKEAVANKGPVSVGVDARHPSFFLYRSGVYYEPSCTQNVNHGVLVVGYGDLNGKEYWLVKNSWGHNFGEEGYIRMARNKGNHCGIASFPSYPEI
Sequence of hCatL (P07711 114-333): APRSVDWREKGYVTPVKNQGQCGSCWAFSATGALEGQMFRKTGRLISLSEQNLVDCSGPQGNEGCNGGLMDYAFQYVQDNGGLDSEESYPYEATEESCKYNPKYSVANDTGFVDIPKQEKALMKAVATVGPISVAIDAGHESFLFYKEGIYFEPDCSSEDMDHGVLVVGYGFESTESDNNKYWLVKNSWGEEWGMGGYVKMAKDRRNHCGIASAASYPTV
Sequence of hCatV (O60911 114-334): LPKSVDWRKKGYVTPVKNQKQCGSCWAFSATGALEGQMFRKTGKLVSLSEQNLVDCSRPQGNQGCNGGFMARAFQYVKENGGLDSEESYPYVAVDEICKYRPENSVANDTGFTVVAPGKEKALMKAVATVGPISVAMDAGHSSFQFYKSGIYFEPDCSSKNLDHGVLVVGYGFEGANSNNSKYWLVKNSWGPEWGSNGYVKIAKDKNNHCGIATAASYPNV

One may read the IC50 as the concentration needed to halve the response being measured. Low readings indicate greater potency, high ones weaker potency. `CC(C)(F)C[C@H](N[C@@H](c1ccc(-c2ccc(S(C)(=O)=O)cc2)cc1)C(F)(F)F)C(=O)NCC#N` [Compound 2, (S)—N-(cyanomethyl)-4-fluoro-4-methyl-2-(((S)-2,2,2-trifluoro-1-(4′-(methylsulfonyl)-[1,1′-biphenyl]-4-yl)ethyl)amino)pentanamide, reference compound]: the IC50 in assay [1] turned out to be 17.8 ± 0.303 nM; in assay [2] it was 909 ± 105 nM; in assay [3], 0.57 ± 0.009 nM.

Consider `C#CC1(NC(=O)[C@H](CC(C)(C)F)N[C@@H](c2ccc(-c3ccc(S(C)(=O)=O)cc3)cc2)C(F)(F)F)CC1` [Compound 3, (S)—N-(1-ethynylcyclopropyl)-4-fluoro-4-methyl-2-(((S)-2,2,2-trifluoro-1-(4′-(methylsulfonyl)-[1,1′-biphenyl]-4-yl)ethyl)amino)pentanamide], for which the IC50 in assay [4] was over 100000 nM; in assay [1], over 100000 nM; in assay [5] it was over 100000 nM; in assay [2], over 100000 nM; in assay [3], 26200 ± 2240 nM.

As usually defined, the kinact is the maximal first-order rate at which the target is inactivated. In the case of `CC(C)(F)C[C@H](N[C@@H](c1ccc(-c2ccc(S(C)(=O)=O)cc2)cc1)C(F)(F)F)C(=O)NCC#CBr` [Compound 6, (S)—N-(3-bromoprop-2-yn-1-yl)-4-fluoro-4-methyl-2-(((S)-2,2,2-trifluoro-1-(4′-(methylsulfonyl)-[1,1′-biphenyl]-4-yl)ethyl)amino)pentanamide], the IC50 in assay [4] worked out at 102 ± 5.14 nM; in assay [1] it was 55.4 ± 2.94 nM; in assay [5] it was 98.6 ± 5.88 nM; in assay [2] it was 16.2 ± 0.883 nM; in assay [3], 46.9 ± 1.81 nM. The kinact/Kl in assay [6] stood at 1650 M⁻¹ s⁻¹. In addition, the Ki in assay [6] stood at 193 nM. In addition, in assay [6] (read-out: kinact (converted)), the maximal inactivation rate constant (kinact) was 0.000317 s⁻¹. Moreover, in assay [7], the “reversibility of hCatK inhibition” value is “irreversible”. The “formation of covalent CatK-inhibitor complex” value in assay [8] (6 h incubation, intact protein LC-MS) was “formation of a covalent hCatK—inhibitor complex; also recorded: covalent complex formed”. Moreover, the Measured mass complex in assay [8] (CatK 3 μM, inhibitor 100 μM, 37° C., 6 h, deconvoluted ESI mass) amounted to 24296. The “selectivity for CatK over structurally related human Cathepsins” value in assay [3] (in words, from Table 2) is “all selectivity is lost”.

`CC(C)C[C@H](NC(=O)[C@H]1O[C@@H]1C(=O)O)C(=O)NCCCCN=C(N)N` [Compound E-64, reference compound]: half-maximal inhibition in assay [4] (IC50) was put at 3.5 ± 0.22 nM. In addition, in assay [6], the kinact was found to be 0.00135 s⁻¹, the kinact/Kl turned out to be 117000 M⁻¹ s⁻¹ and the Ki turned out to be 11.4 nM. The same compound came in with an IC50 in assay [3] of 1.9 ± 0.032 nM.
